≈ marks a conversion by molar mass, not a printed value. Read-outs that look alike come from different tables or passages of the source.
Legend:
Toxoplasma gondii RH-GFP = experiment: In vitro growth inhibition assay (RH-GFP fluorescence in infected HFF cells); assay type: cell-based; conditions: for inhibition at 50 µg/mL / IC50: Toxoplasma gondii; for inhibition at 50 µg/mL: HFF, read-out: % Parasite inhibition (mean ± s.d.); for IC50: read-out: IC50 (anti-toxoplasmosis activity)
Description: Briefly, HFF cells were seeded into 96-well plates (1 × 10^4 cells/well) and cultured for 48 h. Expressing green fluorescent protein (GFP) type I strain RH (RH-GFP) tachyzoites (Nishikawa et al. [2003]) were added to the wells (5 × 10^4 tachyzoites/well). After a 4-h incubation, extracellular parasites were removed by washing. Then, chemical compounds at a final concentration of 50 µg/mL were added. […] After a 72-h incubation, the fluorescence intensity of RH-GFP was measured to determine the parasite growth. Compounds with parasite inhibition ≥ 80% were further screened for dose–response effects at final concentrations of 3.125 µg/mL, 6.25 µg/mL, 12.5 µg/mL, 25 µg/mL and 50 µg/mL.

[1] = Cytotoxicity analysis on HFF cells (CCK-8); assay type: cell-based, human; conditions: human, human foreskin fibroblasts (HFF) cells; test compounds at 50 µg/mL
Description: (§1) The cytotoxicity of the chemical compounds on human foreskin fibroblasts (HFF) cells was determined by using the cell counting kit-8 (CCK-8) (Dojindo Molecular Technologies, Inc. Japan) according to the manufacturer’s instructions. The compounds were dissolved in dimethyl sulfoxide (DMSO). HFF cells were plated in 96-well plates at a density of 1 × 10^4 cells per well. After a 48-h incubation at 37 °C in a 5% CO2 atmosphere, cells were exposed to various concentrations of tested chemical compounds (1 µg/mL, 5 µg/mL, 10 µg/mL, 25 µg/mL, 50 µg/mL and 100 µg/mL). Culture medium containing the same volume of DMSO was used as a negative control. After 24 h, the surviving cells were determined by adding CCK-8 reagent. Cell viability was measured based on the absorbance at 450 nm after an additional 4-h incubation.

Vero cell viability = assay type: cell-based; conditions: African green monkey, Vero cells; test compounds at 100 µg/mL
Description: (§2) TABLE 2 Screening of chemical compounds for anti-RH-GFP efficacy. | column: % viability Vero ^¶

[2] = system: Toxoplasma gondii PruΔku80Δhxgprt; experiment: Bradyzoite differentiation assay (Vero cells, IFAT); assay type: cell-based; conditions: 48 h; for Antitachyzoite activity: PruΔku80Δhxgprt; for Bradyzoite number: compounds 50 µg/mL (Figure 4 legend)
Description: Vero cells were plated in 12-well plates at a density of 1 × 10^5 cells per well and incubated for 24 h at 37 °C in a 5% CO2 atmosphere. Then, purified PruΔku80Δhxgprt tachyzoites were added to Vero cells at 1 mL/well (parasites per host cell ratio = 1:1). Two hours postinfection, chemical compounds were added in EMEM supplemented with 8% FBS. Indirect fluorescent antibody test was conducted after a 48-h incubation. Tachyzoites were stained by using anti-SAG1 mouse polyclonal antibody (Guo et al. [2019]), and bradyzoites were detected by using anti-GFP rabbit polyclonal antibody (Medical & Biological Laboratories CO., LDT, Japan). Secondary antibody Alexa Fluor 594-conjugated goat anti-mouse IgG (Invitrogen, United States) diluted 1:1000 and Alexa Fluor 488-conjugated goat anti-Rabbit IgG (Invitrogen, United States) diluted 1:1000 were used. Five fields per well were observed by using an All-in-one Fluorescence Microscope (BZ-9000, Keyence, Japan), and the percentage of bradyzoites was calculated.

[3] = system: Toxoplasma gondii RH-GFP tachyzoites; assay type: cell-based; conditions: for Activity against extracellular and intracellular parasites: invasion and replication tests, FJS-302 10 µg/mL, FJS-303 and FJS-403 12.5 µg/mL, SFZ 1 mg/mL; for Infection rate (SAG1-positive Vero cells per 100 Vero cells): non-treated 11.3% ± 0.6%
Description: Vero cells were seeded on 12-well plates as described here, and purified RH-GFP tachyzoites were treated with FJS-302, FJS-303, FJS-403 or FJS-INH for 1 h at 37 °C. Then treated parasites were added to Vero cells in a 12-well plate (2 × 10^5 tachyzoites per well). At 2 h postinfection, the extracellular parasites were removed by washing, and the infected Vero cells were further incubated for 24 h at 37 °C in a 5% CO2 incubator. After incubation, IFAT was conducted as described here to evaluate the effects of the chemical compounds on parasite invasion. The infection rates were calculated as follows: [number of SAG1-positive Vero cells]/[100 randomly selected Vero cells]×100 [Eqn 1]
In addition, at least 10 fields were observed per group to measure the average number of parasites per field.

[4] = system: human foreskin fibroblasts (HFF) cells; experiment: Cytotoxicity analysis on HFF cells (CCK-8); assay type: cell-based; conditions: for Effect on host cell viability / growth: HFF cells, 0-100 µg/mL, 24 h
Description: as §1

HFF cells = conditions: 200 µg/mL of SFZ; ref De Oliveira et al. [2009]; cited from earlier work
Vero cells = experiment: Vero cell viability; assay type: cell-based; conditions: sulphadiazine at 1 mg/mL
Description: as §2

[5] = system: Toxoplasma gondii RH strain; conditions: ref De Oliveira et al. [2009]; cited from earlier work
[6] = 72 h, test compounds at 50 µg/mL, 72 h, RH-GFP-infected HFF cells
[7] = RH-GFP-infected HFF cells, 72 h, 3.125-50 µg/mL
[8] = test compounds at 50 µg/mL, 72 h, RH-GFP-infected HFF cells
[9] = parasites pretreated with 12.5 µg/mL
[10] = parasites pretreated with 12.5 µg/mL for 1 h

Compound	inhibition at 50 µg/mL (Toxoplasma gondii RH-GFP; [6])	viability at 24 h, 50 µg/mL [1]	viability at 100 µg/mL (Vero cell viability)	IC50 (Toxoplasma gondii RH-GFP; [7])	% Parasite inhibition (mean ± s.d.) (Toxoplasma gondii RH-GFP; [8])	Antitachyzoite activity [2]	Activity against extracellular and intracellular parasites [3]	Effect on host cell viability / growth [4]	also measured
CCCCCCCCCCc1cn(Cc2ccc(Br)cc2)nn1 [FJS-104]	62.2 ± 6%	100%	103%	–	–	–	–	–	–
Brc1ccc(Cn2cc(CSc3ccccc3)nn2)cc1 [FJS-105]	60.5 ± 6.1%	100%	103%	–	–	–	–	–	–
CCCCc1cn(Cc2ccccc2)nn1 [FJS-201]	64.6 ± 6.8%	100%	99.3%	–	–	–	–	–	–
c1ccc(Cn2cc(CSc3ccccc3)nn2)cc1 [FJS-205]	60.2 ± 5.1%	100%	101%	–	–	–	–	–	–
CCCCc1cn(Cc2ccc(C)cc2)nn1 [FJS-301]	57.7 ± 3%	96.2%	85.4%	–	–	–	–	–	–
CCCCCCc1cn(Cc2ccc(C)cc2)nn1 [FJS-302]	> 80%	85%	86.1%	5.6 µg/mL (≈ 21.8 µM)	95.9 ± 4.6%	significant antitachyzoite activity	effective against extra- and intracellular parasites	no significant suppression on host cell growth	Bradyzoite number [2]: did not increase the bradyzoite number; Number of parasites per field after pretreatment ([3]; parasites pretreated with 10 µg/mL): significantly reduced; Infection rate (SAG1-positive Vero cells per 100 Vero cells) ([3]; parasites pretreated with 10 µg/mL for 1 h): 6.2% ± 0.5%
CCCCCCCCc1cn(Cc2ccc(C)cc2)nn1 [FJS-303]	> 80%	110%	101%	6.8 µg/mL (≈ 23.8 µM)	96.3 ± 3.9%	significant antitachyzoite activity	effective against extra- and intracellular parasites	no significant suppression on host cell growth	Bradyzoite number [2]: did not increase the bradyzoite number; Number of parasites per field after pretreatment [3, 9]: significantly reduced; Infection rate (SAG1-positive Vero cells per 100 Vero cells) [3, 10]: 5.8% ± 0.5%
CCCCCCCCc1cn(Cc2ccc(C(F)(F)F)cc2)nn1 [FJS-403]	> 80%	103%	102%	7 µg/mL (≈ 20.6 µM)	91.5 ± 1.7%	significant antitachyzoite activity	effective against extra- and intracellular parasites	no significant suppression on host cell growth	Bradyzoite number [2]: did not increase the bradyzoite number; Number of parasites per field after pretreatment [3, 9]: significantly reduced; Infection rate (SAG1-positive Vero cells per 100 Vero cells) [3, 10]: 5.2% ± 0.7%
CCCCCCCCCCc1cn(Cc2ccc(C(F)(F)F)cc2)nn1 [FJS-404]	64.5 ± 1.8%	100%	–	–	–	–	–	–	–
FC(F)(F)c1ccc(Cn2cc(CSc3ccccc3)nn2)cc1 [FJS-405]	35 ± 5%	100%	103%	–	–	–	–	–	–
NNC(=O)c1ccncc1 [FJS-INH, isoniazid, reference compound]	> 80%	118%	98%	19.8 µg/mL (≈ 144 µM)	87.2 ± 4.6%	significant antitachyzoite activity	–	no significant suppression on host cell growth	Potency relative to the leading BnTz derivative (Toxoplasma gondii RH-GFP; T. gondii growth inhibition, from IC50): threefold less potent; Infection rate (SAG1-positive Vero cells per 100 Vero cells) ([3]; parasites pretreated with 50 µg/mL for 1 h): 10.7% ± 0.5%
Nc1ccc(S(=O)(=O)Nc2ncccn2)cc1 [SFZ, sulphadiazine, reference compound]	–	–	–	–	–	–	affected only intracellular parasite	–	IC50 (anti-toxoplasmosis activity) (Toxoplasma gondii RH-GFP; [7]): 59.5 µg/mL (≈ 238 µM); % Parasite inhibition (mean ± s.d.) (Toxoplasma gondii RH-GFP; sulphadiazine at 1 mg/mL, 72 h, RH-GFP-infected HFF cells): 73.7 ± 4.6%; Bradyzoite number (GFP-positive parasitophorous vacuoles per field) ([2]; SFZ 1 mg/mL, no treatment 6.5 ± 1.5): 23.7 ± 6.0; Bradyzoite rate (bradyzoite differentiation) ([2]; SFZ 1 mg/mL, no treatment 8.2% ± 1.9%): 46.6% ± 7.9%; Decrease of viability of HFF cells (HFF cells): 28%; Infection rate (SAG1-positive Vero cells per 100 Vero cells) ([3]; parasites pretreated with 1 mg/mL for 1 h): 11.7% ± 1.3%; % viability HFF ([4]; sulphadiazine at 1 mg/mL): 105.19%; % viability Vero (Vero cells): 92.11%; IC50 of SFZ on RH strain [5]: 70 µg/mL
